Assays:
[1] = tested on: SMN2 minigene (full length SMN2 minigene mRNA containing SMN2 exon 7); experiment: SMN2 minigene mRNA splicing RT-qPCR assay in cultured cells; assay type: cell-based, human; conditions: Homo sapiens, HEK293-H; HEK293H cells stably transfected with SMN2-A minigene; 24 hours; 7-point concentration curve; 1.5-fold relative to vehicle-treated cells; read-out: EC1.5x for production of full length SMN2 mRNA
How it was run: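 HEK293H cells stably carrying the SMN2-A minigene treated 24 h at 37° C with compound (DMSO, 200× stock), then lysed. Multiplex RT-qPCR (SMN primers 0.4 μM final; 40 cycles) measures full-length exon 7-containing minigene mRNA, normalized to GAPDH and to vehicle; EC1.5x derived and binned by stars.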

Smn protein = Smn protein assay in cultured cells (SMN HTRF); assay type: cell-based, human; conditions: 48 hours; for maximum fold (Fold) increase of Smn protein: SMA patient fibroblast cells, 7-point concentration data, fold increase relative to vehicle control (SMN HTRF); for EC1.5x (concentration giving 1.5-fold Smn protein increase): SMA Type 1 patient fibroblast cells (GM03813), 7-point concentration curve, SMN HTRF, concentration producing 1.5 times Smn protein vs DMSO vehicle control, read-out: EC1.5x for Smn protein expression
How it was run: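 Lysates in RIPA with protease inhibitors are incubated overnight at room temperature with HTRF anti-SMN antibodies. EC1.5x is derived from fold increase in ΔF over vehicle.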

Compound	melting point	EC (1.5-fold) [1]	maximum fold (Fold) increase of Smn protein (Smn protein)	EC1.5x (concentration giving 1.5-fold Smn protein increase) (Smn protein)
C[C@@H]1CN(c2cc(F)c3cc(-c4cn5cccnc5n4)c(=O)oc3c2)C[C@H](C)N1 [Compound 352, 7-[(3R,5S)-3,5-dimethylpiperazin-1-yl]-5-fluoro-3-(imidazo[1,2-a]pyrimidin-2-yl)-2H-chromen-2-one]	290 to 292 °C	0.1 to 0.3 µM	* (maximum fold increase of ≤1.2)	
Cc1cc2oc(-c3cc4ccc(N5CCN(C(C)C)CC5)cc4oc3=O)cc2c(C)n1 [Compound 840, 3-(4,6-dimethylfuro[3,2-c]pyridin-2-yl)-7-[4-(propan-2-yl)piperazin-1-yl]-2H-chromen-2-one]	186 to 191 °C	0.3 to 1 µM	* (maximum fold increase of ≤1.2)	
O=c1oc2cc(N3CCN(CCO)CC3)ccc2cc1-c1cn2cc(Cl)cnc2n1 [Compound 347, 3-(6-chloroimidazo[1,2-a]pyrimidin-2-yl)-7-[4-(2-hydroxyethyl)piperazin-1-yl]-2H-chromen-2-one]	288 to 296 °C	3 to 30 µM	* (maximum fold increase of ≤1.2)	
Cc1cn2cc(-c3cc4ccc(CCCNC5CCOC5)cc4oc3=O)nc2c(C)n1 (stereo not drawn) [Compound 939, 3-(6,8-dimethylimidazo[1,2-a]pyrazin-2-yl)-7-[3-(tetrahydrofuran-3-ylamino)propyl]-2H-chromen-2-one]	177 to 180 °C	< 0.1 µM	***** (fold increase >1.65)	< 300 nM
Cc1ccc2nc(-c3cc4ccc(N5CC6CCCNC6C5)cc4oc3=O)cn2c1 (stereo not drawn) [Compound 255, 3-(6-methylimidazo[1,2-a]pyridin-2-yl)-7-(octahydro-6H-pyrrolo[3,4-b]pyridin-6-yl)-2H-chromen-2-one]	220 to 230 °C	3 to 30 µM	* (maximum fold increase of ≤1.2)	
Cc1ccn2cc(-c3cc4ccc(N5C[C@@H](C)N[C@@H](C)C5)cc4oc3=O)nc2c1 [Compound 133, 7-[(3R,5S)-3,5-dimethylpiperazin-1-yl]-3-(7-methylimidazo[1,2-a]pyridin-2-yl)-2H-chromen-2-one]	210 to 217 °C	0.1 to 0.3 µM	*** (fold increase between >1.35 and ≤1.5)	3000 to 10000 nM

Continued, in another order:

melting point	Compound	EC (1.5-fold) [1]	maximum fold (Fold) increase of Smn protein (Smn protein)	EC1.5x (concentration giving 1.5-fold Smn protein increase) (Smn protein)
217 to 223 °C	Cc1ccn2cc(-c3cc4ccc(N5CCNC(C)(C)C5)cc4oc3=O)nc2c1 [Compound 215, 7-(3,3-dimethylpiperazin-1-yl)-3-(7-methylimidazo[1,2-a]pyridin-2-yl)-2H-chromen-2-one]	1 to 3 µM	* (maximum fold increase of ≤1.2)	
202 to 205 °C	CCN1CCN(c2ccc3cc(-c4cn5ccsc5n4)c(=O)oc3c2)CC1 [Compound 201, 7-(4-ethylpiperazin-1-yl)-3-(imidazo[2,1-b][1,3]thiazol-6-yl)-2H-chromen-2-one]	0.3 to 1 µM	** (fold increase between >1.2 and ≤1.35)	
218 to 224 °C	C[C@H]1CN(c2ccc3cc(-c4cn5cc(F)cc(F)c5n4)c(=O)oc3c2)CCN1 [Compound 524, 3-(6,8-difluoroimidazo[1,2-a]pyridin-2-yl)-7-[(3S)-3-methylpiperazin-1-yl]-2H-chromen-2-one]	0.3 to 1 µM	* (maximum fold increase of ≤1.2)	
210 to 213 °C	Cc1nccn2cc(-c3cc4ccc(N5CCCNCC5)cc4oc3=O)cc12 [Compound 587, 7-(1,4-diazepan-1-yl)-3-(1-methylpyrrolo[1,2-a]pyrazin-7-yl)-2H-chromen-2-one]	< 0.1 µM	**** (fold increase between >1.5 and ≤1.65)	< 300 nM

Reference: patent USRE47689E1, “Compounds for treating spinal muscular atrophy” (PTC Therapeutics, Inc., priority 2011, dated 2019)
